Data taken from ChEMBL document CHEMBL4346657, “Anticancer activity, dual prooxidant/antioxidant effect and apoptosis induction profile of new bichalcophene-5-carboxamidines” (Eur J Med Chem, 2019).
Activity calls are given as the source filed them. No cut-off for these calls is given here.

Tests used:
[1] = test system: UO-31; assay: Antiproliferative activity against human UO31 cells assessed as growth inhibition after 48 hrs by sulforhodamine B assay; type: functional; conditions: UO-31, 48 h
[2] = test system: CAKI-1; assay: Antiproliferative activity against human CAKI-1 cells assessed as growth inhibition after 48 hrs by sulforhodamine B assay; type: functional; conditions: CAKI-1, 48 h
[3] = test system: M14; assay: Antiproliferative activity against human M14 cells assessed as growth inhibition after 48 hrs by sulforhodamine B assay; type: functional; conditions: M14, 48 h
[4] = test system: MOLT-4; assay: Antiproliferative activity against human MOLT4 cells assessed as growth inhibition after 48 hrs by sulforhodamine B assay; type: functional; conditions: MOLT-4, 48 h
[5] = test system: HL-60(TB); assay: Antiproliferative activity against human HL-60(TB) cells assessed as growth inhibition after 48 hrs by sulforhodamine B assay; type: functional; conditions: HL-60, 48 h
[6] = test system: NCI-H226; assay: Antiproliferative activity against human NCI-H226 cells assessed as growth inhibition after 48 hrs by sulforhodamine B assay; type: functional; conditions: NCI-H226, 48 h
[7] = test system: U-251; assay: Antiproliferative activity against human U251 cells assessed as growth inhibition after 48 hrs by sulforhodamine B assay; type: functional; conditions: U-251, 48 h
[8] = test system: HCT-116; assay: Induction of apoptosis in human HCT116 cells assessed as increase in p53 mRNA expression at 100 nM after 6 hrs hrs by SYBR green dye-based qRT-PCR analysis relative to control; type: functional
[9] = test system: Hs-578T; assay: Antiproliferative activity against human Hs578T cells assessed as growth inhibition after 48 hrs by sulforhodamine B assay; type: functional
[10] = test system: OVCAR-5; assay: Antiproliferative activity against human OVCAR5 cells assessed as growth inhibition after 48 hrs by sulforhodamine B assay; type: functional; conditions: OVCAR-5, 48 h
[11] = test system: MCF7; assay: Antiproliferative activity against human MCF7 cells assessed as growth inhibition after 48 hrs by sulforhodamine B assay; type: functional; conditions: MCF7, 48 h
[12] = test system: OVCAR-4; assay: Antiproliferative activity against human OVCAR4 cells assessed as growth inhibition after 48 hrs by sulforhodamine B assay; type: functional; conditions: OVCAR-4, 48 h
[13] = Antioxidant activity assessed as DPPH radical scavenging activity incubated in dark for 30 mins by spectrophotometric method relative to control; type: functional; set-up: concentration or dose not given beside the values
[14] = Haemolytic activity in human erythrocytes assessed as induction of hemolysis at 10 mM after 30 mins relative to H202; type: cell-based, Erythrocyte; conditions: read-out: Activity
[15] = test system: Erythrocyte; assay: Haemolytic activity in human erythrocytes assessed as induction of hemolysis at 1.25 mM after 30 mins relative to H202; type: cell-based; conditions: erythrocyte, 0.5 h, 1250 µM
[16] = test system: SK-MEL-5; assay: Antiproliferative activity against human SK-MEL-5 cells assessed as growth inhibition after 48 hrs by sulforhodamine B assay; type: functional; conditions: SK-MEL-5, 48 h
[17] = test system: HT-29; assay: Antiproliferative activity against human HT-29 cells assessed as growth inhibition after 48 hrs by sulforhodamine B assay; type: functional; conditions: HT-29, 48 h
[18] = test system: 786-0; assay: Antiproliferative activity against human 786-0 cells assessed as growth inhibition after 48 hrs by sulforhodamine B assay; type: functional; conditions: 786-0, 48 h
[19] = test system: HCT-116; assay: Antiproliferative activity against human HCT116 cells assessed as growth inhibition after 48 hrs by sulforhodamine B assay; type: functional; conditions: HCT-116, 48 h
[20] = test system: OVCAR-8; assay: Antiproliferative activity against human OVCAR8 cells assessed as growth inhibition after 48 hrs by sulforhodamine B assay; type: functional; conditions: OVCAR-8, 48 h
[21] = test system: Panel NCI-60 (60 carcinoma cell lines); assay: Antiproliferative activity against human NCI60 cells assessed as growth inhibition at 10 uM after 48 hrs by sulforhodamine B assay; type: functional; conditions: read-out: GI
[22] = test system: HCT-116; assay: Induction of apoptosis in human HCT116 cells assessed as increase in caspase 9 mRNA expression at 100 nM after 6 hrs hrs by SYBR green dye-based qRT-PCR analysis relative to control; type: functional
[23] = test system: SK-OV-3; assay: Antiproliferative activity against human SKOV3 cells assessed as growth inhibition after 48 hrs by sulforhodamine B assay; type: functional; conditions: SK-OV-3, 48 h
[24] = test system: TK-10; assay: Antiproliferative activity against human TK10 cells assessed as growth inhibition after 48 hrs by sulforhodamine B assay; type: functional; conditions: TK-10, 48 h
[25] = Pro-oxidant activity assessed as increase in bleomycin-Fe2+ induced calf thymus DNA damage at 2 mM after 1 hr by thiobarbituric acid based absorbance analysis
[26] = test system: SF-295; assay: Antiproliferative activity against human SF295 cells assessed as growth inhibition after 48 hrs by sulforhodamine B assay; type: functional; conditions: SF-295, 48 h
[27] = test system: NCI-H23; assay: Antiproliferative activity against human NCI-H23 cells assessed as growth inhibition after 48 hrs by sulforhodamine B assay; type: functional; conditions: NCI-H23, 48 h
[28] = test system: MDA-MB-468; assay: Antiproliferative activity against human MDA-MB-468 cells assessed as growth inhibition after 48 hrs by sulforhodamine B assay; type: functional; conditions: MDA-MB-468, 48 h
[29] = test system: ACHN; assay: Antiproliferative activity against human ACHN cells assessed as growth inhibition after 48 hrs by sulforhodamine B assay; type: functional
[30] = test system: HCT-15; assay: Antiproliferative activity against human HCT15 cells assessed as growth inhibition after 48 hrs by sulforhodamine B assay; type: functional; conditions: HCT-15, 48 h
[31] = test system: RXF 393; assay: Antiproliferative activity against human RXF393 cells assessed as growth inhibition after 48 hrs by sulforhodamine B assay; type: functional; conditions: RXF 393, 48 h
[32] = test system: SN12C; assay: Antiproliferative activity against human SN12C cells assessed as growth inhibition after 48 hrs by sulforhodamine B assay; type: functional
[33] = test system: A549; assay: Antiproliferative activity against human A549/ATCC cells assessed as growth inhibition after 48 hrs by sulforhodamine B assay; type: functional; conditions: A549, 48 h
[34] = test system: SF-539; assay: Antiproliferative activity against human SF539 cells assessed as growth inhibition after 48 hrs by sulforhodamine B assay; type: functional; conditions: SF-539, 48 h
[35] = test system: RPMI-8226; assay: Antiproliferative activity against human RPMI8226 cells assessed as growth inhibition after 48 hrs by sulforhodamine B assay; type: functional; conditions: RPMI-8226, 48 h
[36] = test system: PC-3; assay: Antiproliferative activity against human PC3 cells assessed as growth inhibition after 48 hrs by sulforhodamine B assay; type: functional; conditions: PC-3, 48 h
[37] = test system: SNB-75; assay: Antiproliferative activity against human SNB75 cells assessed as growth inhibition after 48 hrs by sulforhodamine B assay; type: functional; conditions: SNB-75, 48 h
[38] = test system: SF-268; assay: Antiproliferative activity against human SF268 cells assessed as growth inhibition after 48 hrs by sulforhodamine B assay; type: functional; conditions: SF-268, 48 h
[39] = test system: CCRF-CEM; assay: Antiproliferative activity against human CCRF-CEM cells assessed as growth inhibition after 48 hrs by sulforhodamine B assay; type: functional
[40] = test system: SK-MEL-2; assay: Antiproliferative activity against human SK-MEL-2 cells assessed as growth inhibition after 48 hrs by sulforhodamine B assay; type: functional; conditions: SK-MEL-2, 48 h
[41] = test system: SK-MEL-28; assay: Antiproliferative activity against human SK-MEL-28 cells assessed as growth inhibition after 48 hrs by sulforhodamine B assay; type: functional; conditions: SK-MEL-28, 48 h
[42] = Antioxidant activity assessed as ABTS radical scavenging activity by spectrophotometric analysis relative to control; type: functional; set-up: concentration or dose not given beside the values; conditions: dose or concentration not given here

With `N=C(N)c1ccc(-c2ccc(-c3cc(Cl)cc(Cl)c3)o2)o1` the GI50 [1] was 1.71 µM, the GI50 [2] was 1.7 µM and the GI50 [3] was 1.86 µM. The GI50 [4] was 1.69 µM, the GI50 [5] was 1.62 µM and the GI50 [6] was 2.2 µM. For the same compound, the GI50 [7] was 1.82 µM, the “fold change (FC)” value [8] was 1.99 and the GI50 [9] was 2.22 µM. For the same compound, the GI50 [10] was 1.81 µM, the GI50 [11] was 1.35 µM and the GI50 [12] was 1.85 µM. The inhibition [13] was 15.7%, the hemolysis at 0.5 h, 10000 µM [14] was 89.3% and the Activity [15] was “Non-Toxic”. It also gave a GI50 [16] of 1.86 µM, a GI50 [17] of 1.5 µM and a GI50 [18] of 1.78 µM. It also gave a GI50 [19] of 1.21 µM, a GI50 [20] of 2.23 µM and an inhibition of growth at 10 µM [21] of -57.8%. The “fold change (FC)” value [22] was 2.97, the GI50 [23] was 1.8 µM and the GI50 [24] was 1.86 µM. The Activity [25] was “Active”, the GI50 [26] was 1.77 µM and the GI50 [27] was 1.67 µM. For the same compound, the GI50 [28] was 2.23 µM, the GI50 [29] was 1.71 µM and the GI50 [30] was 1.64 µM. It also gave a GI50 [31] of 1.79 µM, a GI50 [32] of 1.97 µM and a GI50 [33] of 1.95 µM. The GI50 [34] was 1.72 µM, the GI50 [35] was 2.13 µM and the GI50 [36] was 1.8 µM. It also gave a GI50 [37] of 1.41 µM, a GI50 [38] of 1.77 µM and a GI50 [39] of 1.87 µM. For the same compound, the GI50 [40] was 2.02 µM, the GI50 [41] was 1.73 µM and the inhibition [42] was 19%.

In the case of `N=C(N)c1ccc(-c2ccc(-c3ccc(F)cc3)s2)s1`, the GI50 [1] was 1.77 µM, the GI50 [2] was 1.68 µM and the GI50 [3] was 1.89 µM. It also gave a GI50 [4] of 1.52 µM, a GI50 [5] of 1.4 µM and a GI50 [6] of 1.42 µM. For the same compound, the GI50 [7] was 1.8 µM, the “fold change (FC)” value [8] was 1.06 and the GI50 [9] was 2.19 µM. The GI50 [10] was 1.7 µM, the GI50 [11] was 1.15 µM and the GI50 [12] was 1.68 µM. The inhibition [13] was 44.8%, the hemolysis at 0.5 h, 10000 µM [14] was 93.3% and the Activity [15] was “Non-Toxic”. For the same compound, the GI50 [16] was 1.81 µM, the GI50 [17] was 1.53 µM and the GI50 [18] was 1.81 µM. It also gave a GI50 [19] of 1.73 µM, a GI50 [20] of 2.23 µM and an inhibition of growth at 10 µM [21] of -25.8%. The “fold change (FC)” value [22] was 3.89, the GI50 [23] was 1.8 µM and the GI50 [24] was 1.72 µM. For the same compound, the Activity [25] was “Active”, the GI50 [26] was 1.61 µM and the GI50 [27] was 1.8 µM. The GI50 [28] was 2.04 µM, the GI50 [29] was 1.71 µM and the GI50 [30] was 1.34 µM. For the same compound, the GI50 [31] was 1.75 µM, the GI50 [32] was 1.98 µM and the GI50 [33] was 1.93 µM. It also gave a GI50 [34] of 1.67 µM, a GI50 [35] of 2.1 µM and a GI50 [36] of 1.77 µM. It also gave a GI50 [37] of 1.48 µM, a GI50 [38] of 1.69 µM and a GI50 [39] of 1.85 µM. For the same compound, the GI50 [40] was 1.81 µM, the GI50 [41] was 1.73 µM and the inhibition [42] was 49.7%.
